# Literature values as cited in US6727243B1, “Compositions comprising cefuroxime axetil” (Biochemie Gesellschaft m.b.H., priority 1998, dated 2004).
# Details: oral administration; after consumption of food versus fastened state
smiles,measurement,value
"CO/N=C(\C(=O)N[C@@H]1C(=O)N2C(C(=O)OC(C)OC(C)=O)=C(COC(N)=O)CS[C@H]12)c1ccco1 (stereo partly shown) [cefuroxime axetil, 1-acetoxyethyl ester of cefuroxime]",food effect on bioavailability,exhibit a food effect
